# According to ChEMBL document CHEMBL5370646, “Synthesis and Conformational Analysis of FR901464-Based RNA Splicing Modulators and Their Synergism in Drug-Resistant Cancers” (J Med Chem, 2023):
# Active and inactive are the calls of the source. The calls are words filed in the database; no cut-off is given here.
# Columns and labels:
# DMS-114 [1] = assay: Synergistic antiproliferative activity against human DMS-114 cells assessed as combination index at 3 nM incubated for 72 hrs in presence of 12 uM venetoclax by WST-1 assay; type: functional
# DMS-114 [2] = assay: Synergistic antiproliferative activity against human DMS-114 cells assessed as combination index at 2 nM incubated for 72 hrs in presence of 2.4 uM venetoclax by WST-1 assay; type: functional
# [3] = Synergistic antiproliferative activity against human Osimertinib-resistant HCC827AR cell assessed as combination index at 1 nM incubated for 72 hrs in presence of 0.25 uM osimertinib by WST-1 assay; type: functional
# DMS-114 [4] = assay: Synergistic antiproliferative activity against human DMS-114 cells assessed as combination index at 2 nM incubated for 72 hrs in presence of 3.6 uM venetoclax by WST-1 assay; type: functional
# DMS-114 [5] = assay: Synergistic antiproliferative activity against human DMS-114 cells assessed as combination index at 1 nM incubated for 72 hrs in presence of 12 uM venetoclax by WST-1 assay; type: functional
# DMS-53 [6] = assay: Synergistic antiproliferative activity against human DMS-53 cells assessed as combination index at 1 nM incubated for 72 hrs in presence of […] venetoclax by WST-1 assay; type: functional
# DMS-114 [7] = assay: Synergistic antiproliferative activity against human DMS-114 cells assessed as combination index at 3 nM incubated for 72 hrs in presence of 4.8 uM venetoclax by WST-1 assay; type: functional
# DMS-53 [8] = assay: Synergistic antiproliferative activity against human DMS-53 cells assessed as combination index at 1 nM incubated for 72 hrs in presence of 50 uM venetoclax by WST-1 assay; type: functional
# [9] = Synergistic antiproliferative activity against human Osimertinib-resistant HCC827AR cell assessed as combination index at 2 nM incubated for 72 hrs in presence of 1 uM osimertinib by WST-1 assay; type: functional
# DMS-53 [10] = assay: Synergistic antiproliferative activity against human DMS-53 cells assessed as combination index at 0.5 nM incubated for 72 hrs in presence of […] venetoclax by WST-1 assay; type: functional
# [11] = Synergistic antiproliferative activity against human Osimertinib-resistant HCC827AR cell assessed as combination index at 2.5 nM incubated for 72 hrs in presence of 2 uM osimertinib by WST-1 assay; type: functional
# [12] = Synergistic antiproliferative activity against human Osimertinib-resistant HCC827AR cell assessed as combination index at 1.5 nM incubated for 72 hrs in presence of 4 uM osimertinib by WST-1 assay; type: functional
# [13] = Synergistic antiproliferative activity against human Osimertinib-resistant HCC827AR cell assessed as combination index at 2.5 nM incubated for 72 hrs in presence of 1 uM osimertinib by WST-1 assay; type: functional
# [14] = Metabolic stability in CD1 mouse plasma assessed as half life measured after 48 hrs by LC-MS analysis; type: ADME, cell-free
# [15] = Synergistic antiproliferative activity against human Osimertinib-resistant HCC827AR cell assessed as combination index at 2.5 nM incubated for 72 hrs in presence of 0.25 uM osimertinib by WST-1 assay; type: functional
# [16] = Growth inhibition of human CCD-841CoN cells assessed as reduction in cell viability incubated for 72 hrs; type: toxicity, cell-based
# HCT-116 [17] = assay: Modulation of RNA splicing in human HCT-116 cells assessed as decrease in SF3B1 phosphorylation at thr313 residue by Western blot analysis; type: functional, cell-based; details: dose 3-100 nM
# [18] = Metabolic stability in CD1 mouse plasma measured after 48 hrs by LC-MS analysis; type: ADME, cell-free
# DMS-53 [19] = assay: Synergistic antiproliferative activity against human DMS-53 cells assessed as combination index at 0.5 nM incubated for 72 hrs in presence of 25 uM venetoclax by WST-1 assay; type: functional
# HCT-116 [20] = assay: Growth inhibition of human HCT-116 cells assessed as reduction in cell viability incubated for 72 hrs; type: functional
# [21] = Synergistic antiproliferative activity against human Osimertinib-resistant HCC827AR cell assessed as combination index at 1.5 nM incubated for 72 hrs in presence of 1 uM osimertinib by WST-1 assay; type: functional
# DMS-114 [22] = assay: Growth inhibition of human DMS-114 cells assessed as reduction in cell viability incubated for 72 hrs; type: functional
# DMS-114 [23] = assay: Synergistic antiproliferative activity against human DMS-114 cells assessed as combination index at 3 nM incubated for 72 hrs in presence of 2.4 uM venetoclax by WST-1 assay; type: functional
# [24] = Synergistic antiproliferative activity against human Osimertinib-resistant HCC827AR cell assessed as combination index at 1.5 nM incubated for 72 hrs in presence of 2 uM osimertinib by WST-1 assay; type: functional
# [25] = Synergistic antiproliferative activity against human Osimertinib-resistant HCC827AR cell assessed as combination index at 1.5 nM incubated for 72 hrs in presence of 0.50 uM osimertinib by WST-1 assay; type: functional
# DMS-53 [26] = assay: Growth inhibition of human DMS-53 cells assessed as reduction in cell viability incubated for 72 hrs; type: functional
# DMS-114 [27] = assay: Synergistic antiproliferative activity against human DMS-114 cells assessed as combination index at 2 nM incubated for 72 hrs in presence of 12 uM venetoclax by WST-1 assay; type: functional
# DMS-53 [28] = assay: Synergistic antiproliferative activity against human DMS-53 cells assessed as combination index at 2 nM incubated for 72 hrs in presence of 50 […] by WST-1 assay; type: functional
# DMS-53 [29] = assay: Synergistic antiproliferative activity against human DMS-53 cells assessed as combination index at 1.5 nM incubated for 72 hrs in presence of 25 uM venetoclax by WST-1 assay; type: functional
# DMS-114 [30] = assay: Modulation of RNA splicing in human DMS-114 cells at 3 to 30 nM by Western blot analysis; type: functional, cell-based; details: dose 3-30 nM
# DMS-53 [31] = assay: Synergistic antiproliferative activity against human DMS-53 cells assessed as combination index at 2 nM incubated for 72 hrs in presence of 400 […] by WST-1 assay; type: functional
# DMS-53 [32] = assay: Synergistic antiproliferative activity against human DMS-53 cells assessed as combination index at 1 nM incubated for 72 hrs in presence of […] venetoclax by WST-1 assay; type: functional
# [33] = Synergistic antiproliferative activity against human Osimertinib-resistant HCC827AR cell assessed as combination index at 1 nM incubated for 72 hrs in presence of 1 uM osimertinib by WST-1 assay; type: functional
# [34] = Synergistic antiproliferative activity against human Osimertinib-resistant HCC827AR cell assessed as combination index at 2 nM incubated for 72 hrs in presence of 2 uM osimertinib by WST-1 assay; type: functional
# [35] = Synergistic antiproliferative activity against human Osimertinib-resistant HCC827AR cell assessed as combination index at 2 nM incubated for 72 hrs in presence of 0.25 uM osimertinib by WST-1 assay; type: functional
# DMS-114 [36] = assay: Synergistic antiproliferative activity against human DMS-114 cells assessed as combination index at 3 nM incubated for 72 hrs in presence of 6 uM venetoclax by WST-1 assay; type: functional
# DMS-114 [37] = assay: Synergistic antiproliferative activity against human DMS-114 cells assessed as combination index at 2 nM incubated for 72 hrs in presence of 6 uM venetoclax by WST-1 assay; type: functional
structure (smiles),measurement,setting,value
COCO[C@@H](C)/C=C\C(=O)N[C@@H]1C[C@H](C)[C@H](C/C=C(C)/C=C/[C@H]2OC(C)(C)C[C@@]3(CO3)[C@@H]2O)O[C@@H]1C,CI,DMS-114 [1],0.14
same,CI,DMS-114 [2],0.69
same,CI,[3],1.06
same,CI,DMS-114 [4],0.63
same,CI,DMS-114 [5],0.88
same,CI,DMS-53 [6],0.91
same,CI,DMS-114 [7],0.21
same,CI,DMS-53 [8],0.8
same,CI,[9],1.2
same,CI,DMS-53 [10],1.52
same,CI,[11],0.99
same,CI,[12],0.92
same,CI,[13],1.04
same,half-life,[14],13 h
same,CI,[15],0.83
same,GI50 at 72 h,[16],9.6 nM
same,Activity,HCT-116 [17],Dose-Dependent Effect
same,Stability,[18],Stable
same,CI,DMS-53 [19],1.33
same,GI50,HCT-116 [20],2 nM
same,CI,[21],1.5
same,GI50,DMS-114 [22],2.3 nM
same,CI,DMS-114 [23],0.21
same,CI,[24],1.34
same,CI,[25],1.28
same,GI50,DMS-53 [26],2.7 nM
same,CI,DMS-114 [27],0.44
same,CI,DMS-53 [28],0.47
same,CI,DMS-53 [29],0.7
same,Activity,DMS-114 [30],Active
same,CI,DMS-53 [31],0.33
same,CI,DMS-53 [32],1.08
same,CI,[33],1.48
same,CI,[34],1.17
same,CI,[35],0.97
same,CI,DMS-114 [36],0.2
same,CI,DMS-114 [37],0.67
